Consider 6 compounds from patent US11673889B2, “Substituted imidazo[4,5-c][1,8]naphthyridines as phosphodiesterase inhibitors” (Nanjing Zhengxiang Pharmaceuticals Co., Ltd., priority 2019, dated 2023).

In data set [1] the target is T1, human soluble ENPP1 (Homo sapiens, UniProt P22413).
T1 construct: 20 ng of human soluble ENPP1
T1 sequence (P22413 103-925 limits assumed): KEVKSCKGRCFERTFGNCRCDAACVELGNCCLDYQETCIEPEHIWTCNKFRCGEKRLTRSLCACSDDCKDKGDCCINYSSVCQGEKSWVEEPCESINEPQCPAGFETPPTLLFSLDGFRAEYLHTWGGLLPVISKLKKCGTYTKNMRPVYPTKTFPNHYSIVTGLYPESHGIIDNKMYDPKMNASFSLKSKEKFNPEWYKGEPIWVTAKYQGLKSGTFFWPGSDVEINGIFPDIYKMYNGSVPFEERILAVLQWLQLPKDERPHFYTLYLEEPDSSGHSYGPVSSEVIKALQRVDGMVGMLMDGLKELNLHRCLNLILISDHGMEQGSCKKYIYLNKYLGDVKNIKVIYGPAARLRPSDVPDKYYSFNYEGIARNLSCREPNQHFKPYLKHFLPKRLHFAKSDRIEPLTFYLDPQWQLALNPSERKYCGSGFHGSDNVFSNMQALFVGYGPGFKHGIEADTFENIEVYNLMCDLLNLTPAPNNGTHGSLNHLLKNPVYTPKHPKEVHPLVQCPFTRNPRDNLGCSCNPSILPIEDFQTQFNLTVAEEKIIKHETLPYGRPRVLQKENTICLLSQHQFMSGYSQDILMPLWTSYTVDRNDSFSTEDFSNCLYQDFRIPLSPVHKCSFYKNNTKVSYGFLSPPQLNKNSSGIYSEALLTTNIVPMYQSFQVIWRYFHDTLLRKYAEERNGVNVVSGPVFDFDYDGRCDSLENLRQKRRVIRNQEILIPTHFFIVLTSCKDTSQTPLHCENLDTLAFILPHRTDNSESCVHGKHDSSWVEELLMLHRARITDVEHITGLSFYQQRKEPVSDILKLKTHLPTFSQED
Briefly: ENPP1 activity assay using p-Nitrophenyl-5′-TMP as a substrate. The class given is biochemical. A digest of the protocol:
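Human soluble ENPP1 (20 ng) was preincubated with inhibitor for 30 min at room temperature. TMP-pNP was then added as a 2 mM […] solution and incubated 1 h at RT, with p-nitrophenol formation read by OD. IC50 came from four-parameter fits of % inhibition relative to no-inhibitor and blank controls.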

The subject of data set [2] is cGAMP activated THP-1 cells. Briefly: ENPP1 inhibitors screening on cGAMP activated THP-1 cells (IFN-β ELISA). The conditions noted are these: THP-1 cells with 2′3′-cGAMP, 24 hours, FIGS. 1A-1E. The class given is cell-based. The procedure:
THP-1 cells from bulk cultures were counted and suspended in RPMI 1640, 20% FBS, 2.5 mM L-alanyl-L-glutamine at a concentration of 5.5×10^6 cells/mL. The THP-1 cells were subsequently seeded into 96 well round bottom plates 180 μL/well (1×10^6 cells per well), incubated for 1 hour at 37° C., 5% CO2.
Test compounds were screened in triplicate on THP-1 cells at a final concentration of 10 μM. A working solutions at 0.2 mM. Each well contains 180 μL of THP-1 cell suspension, 10 μL (30 μM, 40 μM or 50 μM) 2′3′-cGAMP (InvivoGen, catalog #tlrl-nacga23) solution (600 μM, 800 μM or 1000 μM) and 10 μL test compound working solution. Incubate for 1 hour.
Vehicle control wells contain 2′3′-cGAMP at concentrations of […] and 50 μM without any test compound. Positive control, 2′3′-cGAMP or 2′,3′-cGAM(PS)2 (Rp/Sp) (InvivoGen, cat #tlrl-nacga2srs) at 40 μM and 80 μM (final concentration).
The final assay volume were 200 μL/well contains: 1) THP-1 cells=180 μL, 2) test compounds=10 μL, 3) 2′3′-cGAMP or 2′3′-cGAM(PS)2 (Rp/Sp) or vehicle control=10 μL.
After incubation for 24 hours at 37° C., 5% CO2, the supernatants were harvested at 200×g for 10 minutes. Cell culture supernatants were then transferred to a clean plate and stored at −80° C. until ready to analyze for IFN-β levels. The IFN-β levels in cell culture supernatants were determined by ELISA kits (PBL Assay Science, catalog #41410) according to the manufacturer's instructions.
The % increase measured for IFN-β in cells treated by the test compounds 12, 48, 89, 103 and 121 relative to that of untreated cells were tested (as shown in FIGS. 1A-1E).
A general note: ELISA stands for enzyme-linked immunosorbent assay.

The target in data set [3] is T2, ENPP-1, MDA-MB-231 cells (Homo sapiens, UniProt P22413).
T2 sequence (P22413 1-925): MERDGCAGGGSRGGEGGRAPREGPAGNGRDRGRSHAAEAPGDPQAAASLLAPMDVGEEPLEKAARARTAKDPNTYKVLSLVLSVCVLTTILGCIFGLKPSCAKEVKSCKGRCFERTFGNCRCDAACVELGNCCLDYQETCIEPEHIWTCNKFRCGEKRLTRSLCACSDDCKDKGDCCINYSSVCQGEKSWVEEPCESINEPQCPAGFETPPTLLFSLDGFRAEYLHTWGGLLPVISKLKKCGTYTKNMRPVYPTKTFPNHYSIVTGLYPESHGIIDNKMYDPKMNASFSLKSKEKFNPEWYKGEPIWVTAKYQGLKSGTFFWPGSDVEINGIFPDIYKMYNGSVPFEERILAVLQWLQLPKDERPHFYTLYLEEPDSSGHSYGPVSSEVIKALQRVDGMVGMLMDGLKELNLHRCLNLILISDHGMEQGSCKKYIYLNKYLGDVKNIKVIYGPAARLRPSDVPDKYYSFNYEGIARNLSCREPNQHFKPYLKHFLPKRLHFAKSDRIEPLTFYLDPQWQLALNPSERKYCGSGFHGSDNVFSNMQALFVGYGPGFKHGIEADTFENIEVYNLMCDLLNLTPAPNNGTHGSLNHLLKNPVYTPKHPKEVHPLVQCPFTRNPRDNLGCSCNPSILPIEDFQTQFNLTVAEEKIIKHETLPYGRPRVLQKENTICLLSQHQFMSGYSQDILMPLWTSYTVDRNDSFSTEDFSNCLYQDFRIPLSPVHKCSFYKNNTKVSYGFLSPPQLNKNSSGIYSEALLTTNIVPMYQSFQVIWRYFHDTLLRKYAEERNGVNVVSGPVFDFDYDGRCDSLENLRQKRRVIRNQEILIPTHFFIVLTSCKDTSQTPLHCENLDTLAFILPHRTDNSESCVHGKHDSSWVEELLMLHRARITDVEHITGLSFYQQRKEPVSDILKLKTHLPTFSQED
Briefly: cell-based. The note with it: for inhibition at 20 µM: MDA-MB-231, read-out: % Inhibition (at 20 μM).

Data set [4] deals with T1, human soluble ENPP1. Briefly: ENPP1 activity assay using p-Nitrophenyl-5′-AMP as a substrate. The class given is biochemical. A digest of the protocol:
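Human soluble ENPP1 (35 ng) preincubated with inhibitor 30 min at RT, then p-nitrophenyl-5′-AMP added (3 mM solution, 2× final) and incubated 1 h at RT. p-Nitrophenolate release read at OD 405 nm; % inhibition vs no-inhibitor and blank controls, IC50 from four-parameter fit.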

Data set [5] in a line: Liver microsome stability, human. The class given is in vitro ADME. The conditions noted are these: for Hepatic extraction ratio Re: Human liver microsome; for Half-life t1/2 (min): Human liver microsome 0.5 mg/mL, NADPH and UDPGA, 37° C. The procedure: (§1) Liver microsome assay was used to evaluate the metabolic stability of I-VI. The test article at the concentration of […] was incubated with 0.5 mg/mL liver microsome in the presence of NADPH and UDPGA as the co-factors for 0, 15, 30, 45 and 60 minutes. The incubation was carried out at 37° C. with 5% CO2 and saturating humidity. Disappearance of the test article was monitored by LC/MS/MS. the disappearance half-life (t1/2), intrinsic clearance and hepatic extraction ratio were determined.
(In general: Liver microsomes are a subcellular fraction often used to study metabolism.)

Data set [6] in a line: Liver microsome stability, mouse. The note with it: for Hepatic extraction ratio Re / microsomal CLint: Mouse liver microsome; for half-life / microsomal CLint: liver microsomes; for half-life: read-out: Half-life t1/2; for microsomal CLint: read-out: Intrinsic clearance Cl′int, (μL/min/mg protein). The class given is in vitro ADME. The procedure: as §1
Data set [7] deals with T3, ENPP-1, Saos-2 cells (Homo sapiens, UniProt P22413).
T3 construct: ENPP-1 were mainly expressed on the surface of cell membrane; endogenous in cells; host or cells: Saos-2
T3 sequence (P22413 1-925): T2 sequence (P22413 1-925)
As to the kind of experiment: Cellular enzymatic assay of ENPP-1 inhibitors using TMP-pNP as substrate, Saos-2 cells. The class given is cell-based. The conditions noted are these: for inhibition at 20 µM: SAOS-2, read-out: % Inhibition (@20 μM). The procedure: (§2) ENPP-1 were mainly expressed on the surface of cell membrane where it hydrolytes 2′3′-cGAMP to generate 5′-GMP and 5′-AMP. ENPP-1 also has the ability to hydrolyzes artificial phosphoric acid ester TMP-pNP to nucleotide-5′-monophosphate and p-nitrophcnol there, which is a chromogenic product.
(§3) 8 point of different concentrations of each inhibitor were prepared with the final assay concentrations starting at 20 μM. 3× series dilution by DMEM medium without FBS was applied. Prior to adding inhibitors, 75000 cells per well were incubated at 37° C., 5% CO2 in DMEM for 24 hours. After removing the supernatant medium, 50 μL inhibitor solution was added into each well with cultured cells and incubate at 37° C., 5% CO2 for 60 minutes.
(§4) The IC50 values for percent inhibition versus compound concentration are determined by fitting the inhibition curves using a four-parameter variable slope model in GraphPad Prism® 8.

For data set [8], the target named is T4, ENPP-1, HEK293 cells (Homo sapiens, UniProt P22413).
T4 construct: ENPP-1 were mainly expressed on the surface of cell membrane; endogenous in cells; host or cells: HEK293
T4 sequence (P22413 1-925): T2 sequence (P22413 1-925)
Briefly: Cellular enzymatic assay of ENPP-1 inhibitors using TMP-pNP as substrate, HEK 293 cells. The class given is cell-based. The procedure: as §2, §3, §4

The mark [9] stands for this setting: Mouse liver microsome 0.5 mg/mL, NADPH and UDPGA, 37° C.
The mark [10] stands for this setting: HEK293, read-out: Inhibition (at 20 μM).

Like-named read-outs stand apart in the source and are kept apart here.

For the compound `COc1ccc2c(ncc3[nH]c(=O)n(Cc4c(F)cc(S(N)(=O)=O)cc4F)c32)n1` [Compound 103, 3,5-difluoro-4-((7-methoxy-2-oxo-2,3-dihydro-1H-imidazo[4,5-c][1,8]naphthyridin-1-yl)methyl)benzenesulfonamide], the values for the IC50 in data set [1], in data set [3] and in data set [4] were 0.09 nM, 34 nM and 0.06 nM, respectively. The “% increase measured for IFN-β relative to that of untreated cells” value in data set [2] is “potently increased the IFN-β levels at very low concentrations”. For the same compound, the inhibition (usually the share of the control response that was lost under treatment) at 20 µM in data set [3] stood at 87%.

Take `COc1cc2ncc3ncn(Cc4ccc(S(N)(=O)=O)nc4)c3c2cc1OC` [Compound 10, 5-((7,8-dimethoxy-1H-imidazo[4,5-c]quinolin-1-yl)methyl)pyridine-2-sulfonamide]: in data set [1], half-maximal inhibition (IC50) required 1.1 nM. Besides, the IC50 (in general, the concentration needed to halve the response being measured) in data set [4] came out at 27 nM. For the same compound, in data set [5], the “Hepatic extraction ratio Re” value is given as 0 and the “Half-life t1/2 (min)” value is “∞”.

Consider `COc1ccc2c(c1)ncc1[nH]c(=O)n(Cc3ccc(S(N)(=O)=O)cc3)c12` [Compound 35, 4-((7-methoxy-2-oxo-2,3-dihydro-1H-imidazo[4,5-c]quinolin-1-yl)methyl)benzenesulfonamide], for which the “Hepatic extraction ratio Re” value in data set [6] and in data set [5] was 0 throughout. Also, the “Half-life t1/2 (min)” value in data set [6] (setting [9]) and in data set [5] was “∞” in each case. For the same compound, the IC50 amounted to 0.37 nM in data set [1]; 5600 nM in data set [7]; 1500 nM in data set [3]; 35 nM in data set [4]; 3.4 µM in data set [8]. The results for the inhibition at 20 µM in data set [7], in data set [3] and in data set [8] (setting [10]) were 76%, 73% and 51%, respectively.

As to `COc1ccc2ncc3ncn(Cc4ccc(S(N)(=O)=O)cc4)c3c2c1` [Compound 36, 4-((8-methoxy-1H-imidazo[4,5-c]quinolin-1-yl)methyl)benzenesulfonamide], the “Hepatic extraction ratio Re” value in data set [6] was determined as 0.55. Also, in data set [6] (setting [9]), the half-life stood at 49 min. In addition, the microsomal CLint in data set [6] was 28 µL/min/mg. Moreover, the IC50 in data set [1] turned out to be 3.1 nM; in data set [7] it was 2000 nM; in data set [3] it was 1500 nM; in data set [4], 36 nM; in data set [8], 5 µM. The inhibition at 20 µM in data set [7] came to 48%; in data set [3], 66%; in data set [8] (setting [10]), 57%.

For the compound `COc1ccc2c(ncc3[nH]c(=O)n(Cc4ccc(P(=O)(O)O)c(F)c4)c32)n1` [Compound 121, (2-fluoro-4-((7-methoxy-2-oxo-2,3-dihydro-1H-imidazo[4,5-c][1,8]naphthyridin-1-yl)methyl)phenyl)phosphonic acid], the IC50 in data set [1] was determined as 9.4 nM; in data set [3], 8.2 nM; in data set [4], 31 nM. For the same compound, in data set [2], the “% increase measured for IFN-β relative to that of untreated cells” value is “potently increased the IFN-β levels at very low concentrations”. Moreover, the inhibition at 20 µM in data set [3] was 91%.

As for `COc1cc2ncc3ncn([C@H](C)c4ccc(S(N)(=O)=O)cc4)c3c2cc1OC` [Compound 11a, (R)-4-(1-(7,8-dimethoxy-1H-imidazo[4,5-c]quinolin-1-yl)ethyl)benzenesulfonamide], the “Hepatic extraction ratio Re” value in data set [6] is 0.85. Further, the half-life in data set [6] (setting [9]) worked out at 11 min. Also, the microsomal CLint in data set [6] amounted to 131 µL/min/mg. Further, the IC50 in data set [1] is 0.88 nM; in data set [7] it was 1200 nM; in data set [3], 600 nM; in data set [4], 2.5 nM; in data set [8], 2.1 µM. The inhibition at 20 µM was 87% in data set [7]; 79% in data set [3]; 84% in data set [8] (HEK293, HEK 293 cells, at 20 μM, read-out: Inhibition (at 20 μM)).
